From paper PMC2844520 (The AAPS journal, 2010) come the findings set out here.

For data set [1], the target named is T1, Monoacylglycerol lipase (MAGL) (Mus musculus, UniProt O35678).
T1 sequence (O35678 1-303): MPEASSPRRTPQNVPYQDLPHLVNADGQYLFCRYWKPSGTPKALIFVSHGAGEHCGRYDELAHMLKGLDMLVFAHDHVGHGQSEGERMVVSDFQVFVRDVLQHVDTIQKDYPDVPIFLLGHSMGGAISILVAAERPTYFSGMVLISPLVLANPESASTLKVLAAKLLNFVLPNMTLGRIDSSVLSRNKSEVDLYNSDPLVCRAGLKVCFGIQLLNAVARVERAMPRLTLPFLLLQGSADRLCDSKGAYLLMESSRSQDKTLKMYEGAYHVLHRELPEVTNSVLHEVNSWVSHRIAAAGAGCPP
Kind of data set: inhibition of 3H-2-OG hydrolysis in MAGL-transfected COS-7 lysate. Type of data set: biochemical.

Substrate in data set [2]: CCCCC/C=C\C/C=C\C/C=C\C/C=C\CCCC(=O)SCC(O)CO
The format is biochemical, Mus musculus. Particulars: hydrolysis abolished by mutation of catalytic serine […] to alanine.

As usually defined, the IC50 is the concentration that inhibits the measured activity by half. Higher therefore signals weaker potency in that assay. The Km is the concentration of substrate that gives half-maximal velocity.

For the molecule `CCCCC/C=C\C/C=C\C/C=C\C/C=C\CCCCN1C(=O)C=CC1=O` [NAM, N-arachidonyl maleimide], in data set [1], the IC50 is 45.7 nM.

B1: Monoacylglycerol lipase (MAGL) (Mus musculus) (protein)
chain: T1 sequence (O35678 1-303)
As for B1, the Km in data set [2] worked out at 67.9 µM.
